Tested on: Parkinson's disease patients
Test: Phase 2 study: plasma levodopa concentrations compared to UPDRS scores (off/on state)
Assay type: in vivo, human
Settings: plasma levels vs UPDRS scores, FIG. 8
Protocol: The twenty four (24) patients treated in this study underwent serial evaluations of L-dopa plasma levels, motor response, and safety at each visit. The patients were administered the study drug in the OFF state with the serial evaluations starting prior to dosing and continuing for up to 180 minutes post-dose. Motor function was measured using a tapping test, the Unified Parkinson's Disease Rating Scale Part III (UPDRS III), and subjective evaluation of “meaningful” ON and OFF. Safety parameters monitored included pulmonary function, clinical laboratory data, EGCs, and vital signs (blood pressure, heart rate, and orthostatic blood pressure). This study was designed to measure the time, magnitude, and durability of pulmonary levodopa's effect on motor function, to evaluate the safety and tolerability of pulmonary levodopa in Parkinson's disease patients.
In FIG. 8, patient's plasma levodopa concentrations are being compared to UPDRS scores. UPDRS is a standard test for Parkinson's disease patients to test their response to drug treatment and their disease progression. […] As little as 200-400 ng/ml of levodopa plasma concentration makes the difference between being in the off state and being in the on state. […]

SMILES: N[C@@H](Cc1ccc(O)c(O)c1)C(=O)O [L-Dopa, levodopa]
- levodopa plasma concentration difference between being in the off state and being in the on state: 200 to 400 ng/mL
